Assay results published in patent publication US20230141533A1, “LACTONE COMPOUND” (FUJIFILM Corporation, priority 2021, published 2023).
Values joined by “and” are separate entries in the source; they are usually repeats but may differ in a detail not shown here. Equal values may be shown once.

How the values were obtained:
[1] = Water stability over time without applied voltage (HPLC residual rate); format: physicochemical; conditions: for Residual rate (%): aqueous mixed solution with NIKKOL HCO-40, allowed to stand at 25° C. for 24 hours, HPLC area after 24 hours ÷ area immediately after preparation × 100; for water stability over time (in words): without applied voltage, 25° C., 24 hours, judged from residual rate
Protocol: Water Stability Over Time without Applied Voltage
To 1.0 part by mass of each of the compounds (1) to (9) synthesized in Examples and Comparative Examples, 1000 parts by mass of NIKKOL HCO-40 (Nikko Chemicals Co., Ltd.) and 10000 parts by mass of acetone were mixed.
Next, after removing the acetone using an evaporator at a temperature of 40° C., 10000 parts of water was added thereto to prepare a uniform mixed solution 1. The mixed solution 1 was allowed to stand at 25° C. for 24 hours.
Immediately after the preparation of the mixed solution 1 and after allowing the mixed solution 1 to stand for 24 hours, an HPLC measurement was carried out under the following analysis conditions, and a residual rate in the water stability test over time was calculated using the following expression.
(Area value after standing for 24 hours)÷(Area value immediately after preparation)×100=Residual rate (%)
SCL-10AVP manufactured by Shimadzu Corporation
Eluent: single eluent prepared by adding 0.2% by volume of each of acetic acid and triethylamine to a mixed solution obtained by mixing tetrahydrofuran (THF) and water at a ratio of 60:40

[2] = Water stability under applied voltage (square wave voltammetry, oxidation potential); format: physicochemical; conditions: for Oxidation potential: SWV, 0.5 mM in THF:water=90:10, gold electrode, Ag wire reference, ferrocene reference substance, None = no oxidation potential, more stable than 1.3 V (THF oxidized); for water stability under applied voltage (in words): judged from whether an oxidation potential is observed
Protocol: Water Stability Under Applied Voltage
Water stability against voltage of each of the compounds (1) to (9) synthesized in Examples and Comparative Examples was evaluated by the measurement shown below.
Measurement: square wave voltammetry (SWV)
Action electrode: gold electrode
Counter electrode: platinum black electrode
Reference electrode: Ag wire
Supporting electrolyte: tetrabutylammonium hexafluorophosphate (manufactured by FUJIFILM Wako Pure Chemical Corporation)
Reference substance: ferrocene
The compound (1) was adjusted to a concentration of 0.5 mM using a mixed solvent of THF:water=90:10, and nitrogen bubbling was carried out for 10 minutes to produce a measurement sample.
Next, a measurement was performed under the above-described analysis conditions to observe an oxidation potential.
Oxidation potentials of the compounds (2) to (9) were measured under the same conditions.

| Residual rate (%) [1] | Oxidation potential [2] | water stability over time (in words) [1] | water stability under applied voltage (in words) [2] | Compound |
| --- | --- | --- | --- | --- |
| 10% | None | still deteriorated | – | Cc1c(C)c(C)c(C2C(=O)Oc3c2cc(C(C)(C)C)cc3C(C)(C)C)c(C)c1C (stereo not drawn) [Compound (6)] |
| 0% | None | deteriorated | – | CCCCCCCCOc1ccc(C2C(=O)Oc3c2cc(C(C)(C)C)cc3C(C)(C)C)cc1 (stereo not drawn) [Compound (7)] |
| 0% | 0.65 V and 1.00 V and 1.15 V | – | low | Cc1c(C(C)(C)C)cc(C(C)(C)C)c(O)c1C1C(=O)Oc2c1cc(C(C)(C)C)cc2C(C)(C)C (stereo not drawn) [Compound (8)] |
| – | – | – | low | CC(C)(C)c1cc(C2C(=O)Oc3c2cc(C(C)(C)C)cc3C(C)(C)C)c(O)c(C(C)(C)C)c1 (stereo not drawn) [Compound (9)] |

Further lines, the molecule ahead of its results:

| Compound | Residual rate (%) [1] | Oxidation potential [2] | water stability over time (in words) [1] | water stability under applied voltage (in words) [2] |
| --- | --- | --- | --- | --- |
| Cc1cc(C)c(C2C(=O)Oc3c2cc(C(C)(C)C)cc3C(C)(C)C)c(C)c1 (stereo not drawn) [Compound (1)] | 100% | None | – | – |
| COc1cc(OC)c(C2C(=O)Oc3c2cc(C(C)(C)C)cc3C(C)(C)C)c(OC)c1 (stereo not drawn) [Compound (2)] | 95% | None | – | – |
| Cc1cc(C)c(C2C(=O)Oc3c2cc(C)cc3C(C)(C)C)c(C)c1 (stereo not drawn) [Compound (3)] | 90% | None | – | – |
| COc1cc(OC)c(C2C(=O)Oc3c2cc(C)cc3C(C)(C)C)c(OC)c1 (stereo not drawn) [Compound (4)] | 95% | None | – | – |
| Cc1ccc(C2C(=O)Oc3c2cc(C(C)(C)C)cc3C(C)(C)C)cc1C (stereo not drawn) [Compound (5)] | 0% | None | deteriorated | – |
